According to US7718808B2, “Thiazole derivatives” (Kyowa Hakko Kirin Co., Ltd., priority 2003, dated 2010):

Legend:
[1] = target: T1, Rat Adenosine A2A Receptor (Rattus norvegicus, UniProt P30543); assay: Adenosine A2A receptor binding test (3H-CGS21680 binding, rat corpus striatum); conditions: test compound 10^−7 mol/L, 25° C., 120 minutes; for inhibition at 0.1 µM: read-out: Rat Adenosine A2A Receptor Binding Inhibition rate (%) (10^−7 mol/L)
T1 construct: tissue Nippon SLC (animals); host or cells: rat (SD) corpus striatum membrane homogenate
T1 sequence (P30543 whole entry): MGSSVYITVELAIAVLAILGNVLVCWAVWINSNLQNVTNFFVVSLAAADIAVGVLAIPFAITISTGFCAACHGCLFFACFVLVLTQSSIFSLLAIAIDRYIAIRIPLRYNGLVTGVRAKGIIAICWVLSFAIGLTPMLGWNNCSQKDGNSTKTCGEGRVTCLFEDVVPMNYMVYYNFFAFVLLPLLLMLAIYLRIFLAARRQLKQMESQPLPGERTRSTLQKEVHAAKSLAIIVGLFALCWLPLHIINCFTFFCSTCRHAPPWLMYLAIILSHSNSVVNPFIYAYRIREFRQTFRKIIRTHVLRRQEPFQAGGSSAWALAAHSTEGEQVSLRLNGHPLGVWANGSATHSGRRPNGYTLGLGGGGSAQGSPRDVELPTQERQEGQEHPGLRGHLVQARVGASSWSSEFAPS
Protocol: This test was carried but in a similar manner to a Bruns et al's method (Molecular Pharmacology, Vol. 29, p. 331, 1986).
Corpus striatum of rats (SD rat, by Nippon SLC) was suspended in 50 mL of an ice-cooled 50 mmol/L tris(hydroxymethyl)aminomethane hydrochloride (Tris-HCl) buffer (pH 7.7) using a polytron homogenizer (by Kinematica). The resulting homogenate was centrifuged (48,000×g, 20 minutes), and the resulting precipitate was again suspended by adding the same amount of a 50 mmol/L Tris-HCl buffer, followed by centrifugation under the same condition. The resulting final precipitate was suspended by adding a 50 mmol/L Tris-HCl buffer [containing 10 mmol/L magnesium chloride, adenosine deaminase 0.02 units/mg tissue (by Sigma)] so that the tissue concentration was 5 mg (wet weight)/mL.
To 100 μL of the above purified tissue suspension, were added 80 μL (final concentration […]) of tritium-labeled CGS-21680 {^3H-2-[p-(2-carboxyethyl)phenethylamino]-5′-(N-ethylcarboxamido)-adenosine: 40 curies/mmol; by New England Nuclear [The Journal of Pharmacology and Experimental Therapeutics, Vol. 251, p. 888, 1989]} and 20 μL of a test compound solution (10^−7 mol/L; a solution of a test compound in DMSO was diluted with Tris-HCl buffer). The resulting mixture was allowed to stand at 25° C. for 120 minutes, followed by rapid suction filtration through a glass fiber paper filter (GF/C; by Whatman). The filter was immediately washed three times with 200 μL of an ice-cooled 50 mmol/L Tris-HCl buffer. The glass fiber paper filter was transferred into a vial, Microscinti (by Perkin Elmer) was added thereto, and the radioactivity level was measured with Topcount (by Perkin Elmer).
The inhibition rate of the test compound to the adenosine A2A receptor binding (^3H-CGS21680 binding) was calculated according to the following formula.
Amount of total binding means the ^3H-CGS21680 binding radioactivity content in the absence of the test compound. Amount of non-specific binding means the ^3H-CGS21680 binding radioactivity content in the presence of 100 μmol/L cyclopentyladenosine (CPA; by Sigma). Amount of binding in the presence of test compound means the ^3H-CGS21680 binding radioactivity content in the presence of 10^−7 mol/L of the test compound.

Row | SMILES | inhibition at 0.1 µM [1] | melting point | Rat Adenosine A2A Receptor Binding Inhibition rate (%) (10^−7 mol/L) [1]
1 | O=C(Nc1nc(-c2ccco2)c(-c2ccncc2)s1)C1CCCCC1 [Compound 4, N-[4-(2-Furyl)-5-(4-pyridyl)thiazol-2-yl]cyclohexanecarboxamide] | 95% |  | 
2 | O=C(Nc1nc(-c2ccco2)c(-c2ccncc2)s1)c1ccc(O)nc1 [Compound 11, N-[4-(2-Furyl)-5-(4-pyridyl)thiazol-2-yl]-2-hydroxypyridine-5-carboxamide] | 100% |  | 
3 | O=C(Nc1nc(-c2ccco2)c(-c2ccncc2)s1)c1ccc(Cn2ccnc2)cc1 [Compound 19, N-[4-(2-Furyl)-5-(4-pyridyl)thiazol-2-yl]-4-(imidazol-1-ylmethyl)benzamide] | 90% |  | 
4 | CN1CCN(c2cc(C(=O)Nc3nc(-c4ccco4)c(N4CCOCC4)s3)ccn2)CC1 [Compound 41, N-[4-(2-Furyl)-5-morpholinothiazol-2-yl]-2-(4-methylpiperazin-1-yl)pyridine-4-carboxamide] | 92% |  | 
5 | CS(=O)(=O)c1ccc(N2CCC(C(=O)Nc3nc(-c4ccco4)c(N4CCOCC4)s3)CC2)nc1 [Compound 46, N-[4-(2-Furyl)-5-morpholinothiazol-2-yl]-1-[5-(methanesulfonyl)pyridin-2-yl]piperidine-4-carboxamide] | 95% |  | 
6 | O=C(Nc1nc(-c2ccco2)c(CN2CCOCC2)s1)c1cccnc1 [Compound 94, N-[4-(2-Furyl)-5-(morpholinomethyl)thiazol-2-yl]pyridine-3-carboxamide] | 100% |  | 
7 | CC(C)n1nc(-c2sc(NC(=O)c3ccncc3)nc2-c2ccco2)ccc1=O [Compound 131, N-[4-(2-Furyl)-5-(1-isopropyl-6-oxo-1,6-dihydropyridazin-3-yl)thiazol-2-yl]pyridine-4-carboxamide] | 99% | 190 to 194 °C | 
8 | O=C(Nc1nc(-c2ccco2)c(C(=O)c2ccccc2)s1)c1ccc(=O)[nH]c1 [Compound 149, N-[5-Benzoyl-4-(2-furyl)thiazol-2-yl]-2-oxo-1,2-dihydropyridine-5-carboxamide] | 91% | > 300 °C | 
9 | O=C(c1ccccn1)c1sc(NC(=O)C2CC2)nc1-c1ccco1 [Compound 191, N-[4-(2-Furyl)-5-(pyridin-2-ylcarbonyl)thiazol-2-yl]cyclopropanecarboxamide] | 98% | 191 to 192 °C | 
10 | N#Cc1ccc(C(=O)Nc2nc(-c3ccco3)c(C(=O)c3ccccn3)s2)cc1 [Compound 206, 4-Cyano-N-[4-(2-furyl)-5-(pyridin-2-ylcarbonyl)thiazol-2-yl]benzamide] | 95% | 232 to 235 °C | 
11 | Cc1ncc(C(=O)Nc2nc(-c3ccco3)c(C(=O)c3ccccn3)s2)cn1 [Compound 228] |  |  | 84%
12 | O=C(Nc1nc(-c2ccco2)c(C(=O)c2ccccn2)s1)c1ccco1 [Compound 234, N-[4-(2-Furyl)-5-(pyridin-2-ylcarbonyl)thiazol-2-yl]furan-2-carboxamide] | 100% | 184 to 185 °C | 
13 | COC(=O)Nc1nc(-c2ccco2)c(C(=O)c2ccccn2)s1 [Compound 249, Methyl N-[4-(2-furyl)-5-(pyridin-2-ylcarbonyl)thiazol-2-yl]carbamate] | 85% |  | 
14 | O=C(Nc1nc(-c2ccco2)c(C(=O)c2nccs2)s1)c1ccncc1 [Compound 348, N-[4-(2-Furyl)-5-(thiazol-2-ylcarbonyl)thiazol-2-yl]pyridine-4-carboxamide] | 100% | 228 to 240 °C | 
15 | O=C(Nc1nc(-c2ccco2)c(C(=O)C2CCCC2)s1)c1ccncc1 [Compound 431, N-[5-(Cycolopentylcarbonyl)-4-(2-furyl)thiazol-2-yl]-pyridine-4-carboxamide] |  |  | 98%
16 | O=C(Nc1nc(-c2ccco2)c(C(=O)C2CCOCC2)s1)c1ccncc1 [Compound 455, N-[4-(2-Furyl)-5-(tetrahydropyran-4-ylcarbonyl)thiazol-2-yl]pyridine-4-carboxamide] | 100% | 202 to 209 °C | 
17 | O=C(Nc1nc(-c2ccco2)c(C(=O)C2CCOCC2)s1)C1CC1 [Compound 456, N-[4-(2-Furyl)-5-(tetrahydropyran-4-ylcarbonyl)thiazol-2-yl]cyclopropanecarboxamide] | 94% | 182 to 183 °C | 
18 | COc1cccc(C(=O)Nc2nc(-c3ccco3)c(C(=O)C3CCOCC3)s2)c1 [Compound 462, N-[4-(2-Furyl)-5-(tetrahydropyran-4-ylcarbonyl)thiazol-2-yl]-3-methoxybenzamide] | 99% | 198 to 200 °C | 
19 | O=C(Nc1nc(-c2ccco2)c(C(=O)C2CCOCC2)s1)c1ccc(F)cc1 [Compound 468, 4-Fluoro-N-[4-(2-furyl)-5-(tetrahydropyran-4-ylcarbonyl)thiazol-2-yl]benzamide] | 93% | 131 to 132 °C | 
20 | Cc1ccc(C(=O)Nc2nc(-c3ccco3)c(C(=O)C3CCOCC3)s2)cn1 [Compound 504, N-[4-(2-Furyl)-5-(tetrahydropyran-4-ylcarbonyl)thiazol-2-yl]-2-methylpyridine-5-carboxamide] | 100% |  | 
21 | O=C(CN1CCOCC1)Nc1nc(-c2ccco2)c(C(=O)C2CCOCC2)s1 [Compound 558, N-[4-(2-Furyl)-5-(tetrahydropyran-4-ylcarbonyl)thiazol-2-yl]-2-morpholinoacetamide] | 92% |  | 
22 | O=C(Nc1nc(-c2ccoc2)c(C(=O)C2CCOCC2)s1)c1ccc(F)cc1 [Compound 620, 4-Fluoro-N-[4-(3-furyl)-5-(tetrahydropyran-4-ylcarbonyl)thiazol-2-yl]benzamide] |  | 231 to 232 °C | 
23 | O=C(Nc1nc(-c2ccccn2)c(C(=O)c2ccccn2)s1)c1ccncc1 [Compound 631, N-[4-(2-Pyridyl)-5-(pyridin-2-ylcarbonyl)thiazol-2-yl]pyridine-4-carboxamide] |  | 232 to 234 °C | 

The next lines start with results.

Row | inhibition at 0.1 µM [1] | melting point | SMILES | Rat Adenosine A2A Receptor Binding Inhibition rate (%) (10^−7 mol/L) [1]
24 | 100% |  | O=C(Nc1nc(-c2ccco2)c(-c2ccncc2)s1)c1cccnc1 [Compound 5, N-[4-(2-Furyl)-5-(4-pyridyl)thiazol-2-yl]pyridine-3-carboxamide] | 
25 | 100% |  | O=C(Nc1nc(-c2ccco2)c(-c2ccncc2)s1)c1ccco1 [Compound 8, N-[4-(2-Furyl)-5-(4-pyridyl)thiazol-2-yl]furan-2-carboxamide] | 
26 | 100% |  | O=C(Nc1nc(-c2ccco2)c(-c2ccncc2)s1)c1ccoc1 [Compound 9, N-[4-(2-Furyl)-5-(4-pyridyl)thiazol-2-yl]furan-3-carboxamide] | 
27 | 85% |  | O=C(Nc1nc(-c2ccco2)c(Cc2ccccc2)s1)c1ccncc1 [Compound 23, N-[5-Benzyl-4-(2-furyl)thiazol-2-yl]pyridine-4-carboxamide] | 
28 | 88% |  | CCOC(=O)c1sc(NC(=O)c2ccncc2)nc1-c1ccco1 [Compound 24, N-(5-(Ethoxycarbonyl)-4-(2-furyl)thiazol-2-yl]pyridine-4-carboxamide] | 
29 | 100% |  | O=C(Nc1nc(-c2ccco2)c(CN2CCSCC2)s1)c1ccncc1 [Compound 87, N-[4-(2-Furyl)-5-(thiomorpholinomethyl)thiazol-2-yl]pyridine-4-carboxamide] | 
30 | 98% |  | O=C(Nc1nc(-c2ccco2)c(C(=O)c2ccccc2)s1)c1ccncc1 [Compound 99, N-[5-Benzoyl-4-(2-furyl)thiazol-2-yl]pyridine-4-carboxamide] | 
31 | 87% |  | O=C(Nc1nc(-c2ccco2)c(C(=O)c2ccc(F)cc2)s1)c1ccncc1 [Compound 170, N-[5-(4-Fluorobenzoyl)-4-(2-furyl)thiazol-2-yl]pyridine-4-carboxamide] | 
32 | 86% | 218 to 227 °C | O=C(Nc1nc(-c2ccco2)c(C(=O)c2ccccn2)s1)c1ccncc1 [Compound 187, N-[4-(2-Furyl)-5-(pyridin-2-ylcarbonyl)thiazol-2-yl]pyridine-4-carboxamide] | 
33 |  | 231 to 235 °C | O=C(Nc1nc(-c2ccccc2)c(C(=O)c2ccccn2)s1)c1ccncc1 [Compound 634, N-[4-Phenyl-5-(pyridin-2-ylcarbonyl)thiazol-2-yl]pyridine-4-carboxamide] | 
